Test results reported in patent US12679878B2, “CRF2 receptor agonists and their use in therapy” (SANOFI, priority 2020, dated 2026).
Values after ≈ are worked out from the molar mass of the structure shown. Like-named read-outs stand apart in the source and are kept apart here. Starred links: 1 amine or outer side, 2 acyl side, 3 side chain; linkers in the order of their positions; H or OH if unused. Residues, ends and D or L forms follow the SMILES beside them. Groups on a side chain read outwards from the residue. *: point of attachment. C20 diacid = O=C(O)CCCCCCCCCCCCCCCCCCC(=O)*; C18 diacid = O=C(O)CCCCCCCCCCCCCCCCC(=O)*; γGlu = O=C(O)[C@H](CCC(=O)[*:2])N[*:1]; AEEA = NCCOCCOCC(=O)O

Tests used:
human CRF2α receptor = target: T1, human CRF2α receptor (Homo sapiens, UniProt Q13324); assay: cAMP agonism at human CRF2 α receptor in TeloHEAC cells (Example 7); type: cell-based; settings: cAMP HTRF, TeloHEAC cells stably expressing human CRF2 α, 0% HSA; read-out: EC50 [nM], 0% HSA
T1 construct: expressed in transfected cells; host or cells: TeloHEAC
T1 sequence (Q13324 1-411): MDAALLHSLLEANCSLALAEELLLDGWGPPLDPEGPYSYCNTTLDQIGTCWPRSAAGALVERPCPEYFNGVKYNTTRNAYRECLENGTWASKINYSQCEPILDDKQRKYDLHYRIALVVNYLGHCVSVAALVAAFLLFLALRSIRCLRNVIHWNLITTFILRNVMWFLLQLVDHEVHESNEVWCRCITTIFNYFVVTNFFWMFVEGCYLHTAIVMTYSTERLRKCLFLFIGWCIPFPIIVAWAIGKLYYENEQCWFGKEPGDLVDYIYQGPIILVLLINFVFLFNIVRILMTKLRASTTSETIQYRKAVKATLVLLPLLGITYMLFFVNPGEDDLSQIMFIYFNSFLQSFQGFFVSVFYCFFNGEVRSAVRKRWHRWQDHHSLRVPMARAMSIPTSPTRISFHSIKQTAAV
Summary of the method: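 Steps: thaw and wash cells; suspend in 1×HBSS, 20 mM HEPES, 0 or 0.1% HSA, 2 mM IBMX; add compound, 30 min RT; lyse with HTRF reagents, 1 h; read 665/620 nm. EC50 calculated, E% versus 1000 nM UCN2.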

rat CRF2R α receptor = assay: cAMP agonism at rat CRF2R α receptor in A7R5 rat aortic smooth muscle cells (Example 8); type: cell-based; settings: cAMP HTRF, A7R5 rat aortic smooth muscle cell line, 0% HSA
Summary of the method: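 Thawed cryopreserved A7R5 cells in HBSS/20 mM HEPES (0 or 0.1% HSA) with 2 mM IBMX, 2000 cells/well, were exposed to compound for 30 min at room temperature. cAMP was read by HTRF (665/620 nm ratio) after 1 h with lysis reagents. Activity was normalised to 1000 nM urocortin 2 as 100%, and EC50 was taken as the concentration giving 50% of maximal activation.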

CRF1R receptor = target: T2, CRF1R receptor (Homo sapiens, UniProt P34998); assay: cAMP activity at anti-target CRF1R, CRF1R-overexpression CHO cell line (Example 9); type: cell-based; settings: for EC50: 0% HSA
T2 construct: host or cells: CHO-K1 clone 2
T2 sequence (P34998 24-415): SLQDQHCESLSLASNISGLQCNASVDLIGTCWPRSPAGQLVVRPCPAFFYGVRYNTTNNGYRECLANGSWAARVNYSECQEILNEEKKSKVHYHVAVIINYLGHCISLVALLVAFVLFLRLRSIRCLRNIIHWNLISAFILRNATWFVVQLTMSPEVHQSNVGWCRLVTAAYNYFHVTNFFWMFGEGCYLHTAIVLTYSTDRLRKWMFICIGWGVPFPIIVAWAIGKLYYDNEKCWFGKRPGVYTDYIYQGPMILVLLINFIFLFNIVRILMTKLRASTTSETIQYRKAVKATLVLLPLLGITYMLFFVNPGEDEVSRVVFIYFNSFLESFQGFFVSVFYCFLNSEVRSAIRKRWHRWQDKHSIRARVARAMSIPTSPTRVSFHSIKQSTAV
Summary of the method: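 cAMP accumulation was read by HTRF after 30 min at room temperature of compound treatment. Cells were cryopreserved CHO cells overexpressing CRF1R, plated at 2000/well in IBMX (2 mM)-containing HBSS/HEPES buffer with 0 or 0.1% HSA. Activity was normalized to 1000 nM UCN2 as 100%.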

[1] = Solubility in buffer systems by UPLC-UV (Example 13); type: physicochemical
Summary of the method: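 The supernatant was diluted 1:10 and quantified by UPLC-UV peak area against a reference standard curve, correcting for sequence-based extinction coefficients.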

[2] = CRF1R-overexpression CHO cell line
[3] = CRF1R-overexpression CHO cell line, read-out: Emax (%)
[4] = pH 7.4, Solubility in Buffer C [mg/ml]
[5] = pH 4.5, Solubility in Buffer B [mg/ml]

SMILES | EC50 (human CRF2α receptor) [nM] | EC50 (rat CRF2R α receptor) [nM] | EC50 (CRF1R receptor; [2]) [nM] | Emax (CRF1R receptor; [3]) [%] | solubility at 1 h [1, 4] [µg/mL] | Emax (CRF1R receptor; CHO) [%] | solubility at 1 h ([1]; Buffer B: 100 mM acetate buffer, pH 4.5, 2.7 mg/ml m-cresol, target 10 mg/ml, read-out: Solubility in Buffer B) [µg/mL] | solubility at 1 h ([1]; Buffer C: 100 mM phosphate buffer, pH 7.4, target 10 mg/ml, read-out: Solubility in Buffer C) [µg/mL] | solubility at 1 h [1, 5] [µg/mL]
CC[C@H](C)[C@H](N)C(=O)N[C@H](C(=O)N[C@@H](CC(C)C)C(=O)N[C@@H](CO)C(=O)N[C@@H](CC(C)C)C(=O)N[C@@H](CC(=O)O)C(=O)N[C@H](C(=O)N1CCC[C@H]1C(=O)N[C@H](C(=O)N[C@@H](CCCCN)C(=O)N[C@@H](CC(C)C)C(=O)N[C@@H](CCCCNC(=O)COCCOCCNC(=O)COCCOCCNC(=O)CC[C@H](NC(=O)CCCCCCCCCCCCCCCCC(=O)O)C(=O)O)C(=O)N[C@@H](CCC(N)=O)C(=O)N[C@H](C(=O)N[C@@H](CC(C)C)C(=O)N[C@@H](CC(C)C)C(=O)N[C@@H](CCC(=O)O)C(=O)N[C@@H](CCC(N)=O)C(=O)N[C@@H](CCC(=O)O)C(=O)N[C@@H](CCCNC(=N)N)C(=O)N[C@@H](CCC(N)=O)C(=O)N[C@@H](CCCNC(=N)N)C(=O)N[C@@H](CCCCN)C(=O)N[C@@H](CCC(=O)O)C(=O)N[C@@H](CCCNC(=N)N)C(=O)N[C@@H](CCC(N)=O)C(=O)N[C@@H](CCC(N)=O)C(=O)N[C@@H](C)C(=O)N[C@@H](CCC(=O)O)C(=O)N[C@H](C(=O)N[C@@H](CC(N)=O)C(=O)N[C@@H](C)C(=O)N[C@@H](CCC(N)=O)C(=O)N[C@H](C(=O)N[C@@H](CC(C)C)C(=O)N[C@@H](C)C(=O)N[C@@H](CCC(N)=O)C(=O)N[C@H](C(N)=O)C(C)C)[C@@H](C)CC)[C@@H](C)O)[C@@H](C)CC)[C@@H](C)CC)C(C)C)C(C)C [compound 39] (H-IVLSLDVPIKLK([AEEA-AEEA-γGlu-C18 diacid])QILLEQERQRKERQQAETNAQILAQV-NH2) | 0.65 | 2.04 | > 1000 | 13.3 | 10300 (≈ 2000 µM) | – | – | – | –
CC[C@H](C)[C@H](NC(=O)[C@H](CCC(N)=O)NC(=O)[C@H](CCC(=O)O)NC(=O)[C@H](CC(C)C)NC(=O)[C@H](CC(C)C)NC(=O)[C@H](CCC(N)=O)NC(=O)[C@H](CCCCN)NC(=O)[C@H](CC(N)=O)NC(=O)[C@H](CCCCN)NC(=O)[C@H](CCC(=O)O)NC(=O)[C@H](C)NC(=O)[C@H](CCC(N)=O)NC(=O)[C@H](CCC(N)=O)NC(=O)[C@H](CCCNC(=N)N)NC(=O)[C@H](CCC(=O)O)NC(=O)[C@H](CCCCN)NC(=O)[C@H](CCCCN)NC(=O)[C@H](CCC(N)=O)NC(=O)[C@H](CCCCN)NC(=O)[C@H](CCC(N)=O)NC(=O)[C@H](CCC(N)=O)NC(=O)[C@H](CCCCN)NC(=O)[C@H](Cc1ccccc1)NC(=O)[C@H](CC(C)C)NC(=O)[C@@H](NC(=O)[C@H](CCC(N)=O)NC(=O)[C@H](CCCCNC(=O)COCCOCCNC(=O)COCCOCCNC(=O)CC[C@H](NC(=O)CCCCCCCCCCCCCCCCCCC(=O)O)C(=O)O)NC(=O)[C@@H](NC(=O)[C@H](CCCCN)NC(=O)[C@@H](NC(=O)[C@@H]1CCCN1C(=O)[C@@H](NC(=O)[C@H](CC(=O)O)NC(=O)[C@H](CC(C)C)NC(=O)[C@H](CO)NC(=O)[C@H](CC(C)C)NC(=O)[C@@H](NC(=O)[C@@H](N)Cc1ccccc1)[C@@H](C)O)C(C)C)[C@@H](C)O)[C@@H](C)CC)[C@@H](C)CC)C(N)=O [compound 58] (H-FTLSLDVPTKIK([AEEA-AEEA-γGlu-C20 diacid])QILFKQQKQKKERQQAEKNKQLLEQI-NH2; N-terminus assumed) | 0.28 | 0.72 | – | – | – | 9.12 | > 9500 | > 9400 | –
CC[C@H](C)[C@H](NC(=O)[C@H](CCC(N)=O)NC(=O)[C@H](CCCCNC(=O)COCCOCCNC(=O)COCCOCCNC(=O)CC[C@H](NC(=O)CCCCCCCCCCCCCCCCCCC(=O)O)C(=O)O)NC(=O)[C@@H](NC(=O)[C@H](CCCCN)NC(=O)[C@@H](NC(=O)[C@@H]1CCCN1C(=O)[C@@H](NC(=O)[C@H](CC(=O)O)NC(=O)[C@H](CC(C)C)NC(=O)[C@H](CO)NC(=O)[C@H](CC(C)C)NC(=O)[C@@H](NC(=O)[C@@H](N)Cc1ccccc1)[C@@H](C)O)C(C)C)[C@@H](C)O)[C@@H](C)CC)C(=O)N[C@@H](CC(C)C)C(=O)N[C@@H](CC(C)C)C(=O)N[C@@H](CCCCN)C(=O)N[C@@H](CCC(N)=O)C(=O)N[C@@H](CCC(N)=O)C(=O)N[C@@H](CCCCN)C(=O)N[C@@H](CCC(N)=O)C(=O)N[C@@H](CCCCN)C(=O)N[C@@H](CCCCN)C(=O)N[C@@H](CCC(=O)O)C(=O)N[C@@H](CCCNC(=N)N)C(=O)N[C@@H](CCC(N)=O)C(=O)N[C@@H](CCC(N)=O)C(=O)N[C@@H](C)C(=O)N[C@@H](CCC(=O)O)C(=O)N[C@H](C(=O)N[C@@H](CC(N)=O)C(=O)N[C@@H](CCCCN)C(=O)N[C@@H](CCC(N)=O)C(=O)N[C@@H](CC(C)C)C(=O)N[C@@H](CC(C)C)C(=O)N[C@@H](CCC(=O)O)C(=O)N[C@@H](CCCNC(=N)N)C(=O)N[C@H](C(N)=O)C(C)C)[C@@H](C)O [compound 61] (H-FTLSLDVPTKIK([AEEA-AEEA-γGlu-C20 diacid])QILLKQQKQKKERQQAETNKQLLERV-NH2) | 0.38 | 0.94 | > 1000 | 3.31 | > 9500 | – | – | – | > 10600
CC[C@H](C)[C@H](N)C(=O)N[C@H](C(=O)N[C@@H](CC(C)C)C(=O)N[C@@H](CO)C(=O)N[C@@H](CC(C)C)C(=O)N[C@@H](CC(=O)O)C(=O)N[C@H](C(=O)N1CCC[C@H]1C(=O)N[C@H](C(=O)N[C@@H](CCCCN)C(=O)N[C@@H](CC(C)C)C(=O)N[C@@H](CCCCNC(=O)COCCOCCNC(=O)COCCOCCNC(=O)CC[C@H](NC(=O)CCCCCCCCCCCCCCCCC(=O)O)C(=O)O)C(=O)N[C@@H](CCC(N)=O)C(=O)N[C@H](C(=O)N[C@@H](CC(C)C)C(=O)N[C@@H](CC(C)C)C(=O)N[C@@H](CCC(=O)O)C(=O)N[C@@H](CCC(N)=O)C(=O)N[C@@H](CCC(=O)O)C(=O)N[C@@H](CCCCN)C(=O)N[C@@H](CCC(N)=O)C(=O)N[C@@H](CCCCN)C(=O)N[C@@H](CCCCN)C(=O)N[C@@H](CCC(N)=O)C(=O)N[C@@H](CCCNC(=N)N)C(=O)N[C@@H](CCC(=O)O)C(=O)N[C@@H](CCC(N)=O)C(=O)N[C@@H](C)C(=O)N[C@@H](CCC(=O)O)C(=O)N[C@H](C(=O)N[C@@H](CC(N)=O)C(=O)N[C@@H](CCCCN)C(=O)N[C@@H](CCC(N)=O)C(=O)N[C@H](C(=O)N[C@@H](CC(C)C)C(=O)N[C@@H](C)C(=O)N[C@@H](CCC(N)=O)C(=O)N[C@H](C(N)=O)C(C)C)[C@@H](C)CC)[C@@H](C)O)[C@@H](C)CC)[C@@H](C)CC)C(C)C)C(C)C [compound 67] (H-IVLSLDVPIKLK([AEEA-AEEA-γGlu-C18 diacid])QILLEQEKQKKQREQAETNKQILAQV-NH2; N-terminus assumed) | 0.57 | 0.66 | > 1000 | 9.18 | 7500 (≈ 1450 µM) | – | – | – | 6800 (≈ 1320 µM)
